Laboratory results as given in patent US11312718B2, “Formulations of (S)-3-(1-(9H-purin-6-ylamino)ethyl)-8-chloro-2-phenylisoquinolin-1(2H)-one” (Infinity Pharmaceuticals, Inc., priority 2011, dated 2022).
Blank lines part the entries; values can stand above or below the compound they belong to.

What was measured:
[1] = 1 week
Description: (§1) Forms A, B, C, D, and E were held at 60° C. for 10 days followed by analysis by XRPD. In each case, 8 mL vials were charged with approximately 20 mg of material, with the exception of Form B for which 10 mg of material was charged. Samples equilibrated in an oven for 10 days.

[2] = Dynamic vapor sorption (DVS) / moisture sorption analysis; format: physicochemical
Description: Compounds and polymorphs provided herein can be characterized by moisture sorption analysis. This analysis was performed using a Hiden IGAsorp Moisture Sorption instrument. Moisture sorption experiments were carried out at about 25° C. by performing an adsorption scan from about 40% to about 90% RH in steps of about 10% RH and a desorption scan from about […] to about 0% RH in steps of about −10% RH. A second adsorption scan from about 10% to about 40% RH was performed to determine the moisture uptake from a drying state to the starting humidity. Samples were allowed to equilibrate for about four hours at each point or until an asymptotic weight was reached. After the isothermal sorption scan, samples were dried for about one hour at elevated temperature (about 60° C.) to obtain the dry weight. XRPD analysis on the material following moisture sorption was performed to determine the solid form.
Dynamic vapor sorption (DVS) analysis was performed on polymorph Forms A, B, C, D, and E using the DVS instrument and parameters as described above. […] Hysteresis indicative of hemi-hydrate formation was observed.

[3] = Thermal stability (60° C.); details: held at 60° C. for 10 days
Description: as §1

[4] = Grinding stability (mortar and pestle); format: physicochemical; details: by hand, 2 and 5 min, XRPD
Description: Forms A, C, D, and E were subjected to grinding experiments performed using a mortar and pestle by hand. Samples were lightly grounded for 2 minutes then analyzed by XRPD. Material was then returned to the mortar and pestle and grounded for an additional 3 minutes, for a total of 5 minutes of grinding, and re-analyzed by XRPD.

B6.Sle1z.Sle3z model = details: cited from earlier work
[5] = system: leukemic cells from early passage p190 transduced cultures; details: at about 70 mg/kg twice daily; cited from earlier work

Thermal stability (60° C.) [1]: stable after 1 | DVS ([2]; @ 60% RH): 1.9% @ 60% RH | DVS ([2]; @ 90% RH): 2.2% @ 90% RH | hygroscopicity ([2]; DVS): slightly hygroscopic | moisture uptake at 60% RH ([2]; DVS, about 25° C., 60% RH): 1.9 wt % | moisture uptake at 90% RH ([2]; DVS, about 25° C., 90% RH): 2.2 wt % | polymorph Form changes by XRPD [3]: No polymorph Form changes were observed | Grinding (mortar & pestle) [4]: amorphous
Structure (SMILES): C[C@H](Nc1ncnc2[nH]cnc12)c1cc2cccc(Cl)c2c(=O)n1-c1ccccc1 [Form E, (S)-3-(1-(9H-purin-6-ylamino)ethyl)-8-chloro-2-phenylisoquinolin-1(2H)-one]

Structure (SMILES): CO[C@H]1C[C@@H]2CC[C@@H](C)[C@@](O)(O2)C(=O)C(=O)N2CCCC[C@H]2C(=O)O[C@H]([C@H](C)C[C@@H]2CC[C@@H](OCCO)[C@H](OC)C2)CC(=O)[C@H](C)/C=C(\C)[C@@H](O)[C@@H](OC)C(=O)[C@H](C)C[C@H](C)/C=C/C=C/C=C/1C [RAD001]
lupus symptoms (B6.Sle1z.Sle3z model): ameliorate lupus symptoms

Structure (SMILES): Cc1ccc(NC(=O)c2ccc(CN3CCN(C)CC3)cc2)cc1Nc1nccc(-c2cccnc2)n1 [imatinib]
leukemogenesis [5]: delay but not cure leukemogenesis
